From ChEMBL document CHEMBL5360522, “Design, Synthesis, and Biological Evaluation of New 1H-Imidazole-2-Carboxylic Acid Derivatives as Metallo-β-Lactamase Inhibitors” (Bioorg Med Chem, 2022)

Experiments:
[1] = Inhibition of N-terminal His-6 tagged VIM-2 (27 to 266 residues) (unknown origin) expressed in Escherichia coli Transetta (DE3) using FC5 as fluorescence substrate preincubated for 10 mins followed by substrate addition by microplate reader analysis; parameters: species or system Bacteria
[2] = Inhibition of Metallo-beta-lactamase IMP-1 (unknown origin) using FC5 as fluorescence substrate preincubated for 10 mins followed by substrate addition by microplate reader analysis
Escherichia coli [3] = test: Antibacterial activity against Escherichia coli C1541 expressing VIM-2 assessed as meropenem MIC at 10 ug/ml incubated for 16 to 18 hrs in presence of meropenem by two-fold serial dilution method; format: functional; conditions: dose 10 µg/ml, time 16-18 hrs
Escherichia coli [4] = test: Antibacterial activity against Escherichia coli C1541 expressing IMP-1 assessed as meropenem MIC at 10 ug/ml incubated for 16 to 18 hrs in presence of meropenem by two-fold serial dilution method; format: functional; conditions: dose 10 µg/ml, time 16-18 hrs
[5] = Inhibition of Metallo-beta-lactamase VIM-5 (unknown origin) using FC5 as fluorescence substrate preincubated for 10 mins followed by substrate addition by microplate reader analysis
Escherichia coli [6] = test: Antibacterial activity against Escherichia coli C1542 expressing VIM-2 assessed as meropenem MIC at 10 ug/ml incubated for 16 to 18 hrs in presence of meropenem by two-fold serial dilution method; format: functional; conditions: dose 10 µg/ml, time 16-18 hrs
[7] = molecular target: Metallo-beta-lactamase type 2 (Bacteria, UniProt C7C422); test: Inhibition of NDM-1 (1 to 270 residues) (unknown origin) expressed in Escherichia coli Transetta (DE3) using FC5 as fluorescence substrate preincubated for 10 mins followed by substrate addition by microplate reader analysis
Metallo-beta-lactamase type 2, sequence (C7C422 whole entry, the tested form may be a part): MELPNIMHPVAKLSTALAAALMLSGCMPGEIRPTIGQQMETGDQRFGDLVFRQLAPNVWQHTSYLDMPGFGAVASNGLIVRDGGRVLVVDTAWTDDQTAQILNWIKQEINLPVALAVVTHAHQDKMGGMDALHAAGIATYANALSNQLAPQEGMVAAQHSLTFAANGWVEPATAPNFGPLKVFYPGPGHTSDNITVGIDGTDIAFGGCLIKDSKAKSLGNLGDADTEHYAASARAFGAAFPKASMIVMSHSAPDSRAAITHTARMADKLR

[8] = Inhibition of Metallo-beta-lactamase VIM-1 (unknown origin) using FC5 as fluorescence substrate preincubated for 10 mins followed by substrate addition by microplate reader analysis

SMILES	IC50 [1] [µM]	IC50 [2] [µM]	MIC (Escherichia coli [3]) [µg/mL]	MIC (Escherichia coli [4]) [µg/mL]	IC50 [5] [µM]	MIC (Escherichia coli [6]) [µg/mL]	IC50 [7] [µM]	IC50 [8] [µM]
O=C(O)c1nccn1Cc1ccccc1	0.48	32.1	16	8	1.55	16	63.5	4.14
O=C(O)c1nccn1Cc1ccncc1	0.56	> 300	≤ 0.25	8	5.78	≤ 0.25	> 300	29.5
O=C(O)c1nc2ccccc2n1Cc1ccccc1	> 300	> 100	–	–	–	–	> 100	> 100
O=C(O)c1nccn1CCc1cccc(F)c1	0.11	441	–	–	0.66	–	> 100	3.67
O=C(O)c1nccn1CCc1cccc2ccccc12	0.07	50.9	≤ 0.25	8	1.07	≤ 0.25	74.8	4.13
O=C(O)c1ncsc1Cc1ccccc1	2.06	7.8	–	–	4.37	–	43.7	6.31
O=C(O)c1nccn1CCc1ccc(-c2ccc3ccccc3c2)cc1	4.97	202	–	–	0.22	–	> 100	96.7
O=C(O)c1ncsc1CCc1ccccc1F	0.035	121	–	–	1.17	–	> 100	1.82
O=C(O)c1nccn1CCc1ccc2ccccc2c1	0.023	46.8	0.5	8	0.14	≤ 0.25	> 100	7.06
CCC(c1ccccc1)n1ccnc1C(=O)O (centres undefined)	2.73	> 300	–	–	2.59	–	> 300	30.8
Cc1ncsc1CCn1ccnc1C(=O)O	0.2	> 100	–	–	1.99	–	> 100	31.6
O=C(O)c1ncsc1CCc1ccc(Br)cc1	0.1	> 100	–	–	0.44	–	> 100	8.37
O=C(O)c1nccn1CCc1ccc(-c2cccs2)cc1	0.018	64	≤ 0.25	8	0.018	≤ 0.25	126	3.98
O=C(O)c1nccn1CCc1ccc(-c2ccncc2)cc1	0.11	10.2	–	–	0.17	–	54.6	2.17
Cc1ccc(CCn2ccnc2C(=O)O)cc1	0.48	> 100	–	–	6.28	–	> 100	15.7
O=C(O)c1nccn1CCc1cccs1	0.12	7.97	–	–	0.64	–	> 100	1.07
COc1cccc(CCc2scnc2C(=O)O)c1	0.028	61.6	–	–	3.23	–	29.9	4.77
O=C(O)c1ncsc1CCc1ccc(C(F)(F)F)cc1	0.21	87.8	–	–	1.55	–	> 100	14.5
O=C(O)c1nccn1CCc1ccc(Cl)cc1	0.1	> 100	–	–	0.44	–	> 100	8.37
COc1ccc(CCn2ccnc2C(=O)O)cc1OC	0.31	326	–	–	15.1	–	> 100	76.3
O=C(O)c1ncsc1CCc1cccc(Br)c1	0.024	> 100	–	–	1.45	–	> 100	1.64
O=C(O)c1ncsc1CCc1ccc(F)cc1	0.047	56.8	–	–	0.41	–	> 100	4.09
O=C(O)c1nccn1CCc1ccc(-c2cccc3ccccc23)cc1	1.46	~67	–	–	0.089	–	~200	> 100
COc1cccc(CCn2ccnc2C(=O)O)c1	0.38	70.2	–	–	10.7	–	> 100	9.39
O=C(O)c1nccn1CCc1ccc([N+](=O)[O-])cc1	0.04	> 100	≤ 0.25	8	0.15	≤ 0.25	> 100	4.84

SMILES	IC50 [1] [µM]	IC50 [2] [µM]	MIC (Escherichia coli [3]) [µg/mL]	MIC (Escherichia coli [4]) [µg/mL]	IC50 [5] [µM]	MIC (Escherichia coli [6]) [µg/mL]	IC50 [7] [µM]	IC50 [8] [µM]
O=C(O)c1ncsc1CCc1cccc(C(F)(F)F)c1	0.56	112	–	–	2.69	–	> 100	2.08
COc1ccc(CCn2ccnc2C(=O)O)cc1	0.35	4.48	–	–	1.64	–	> 100	33.7
O=C(O)c1nccn1CCCc1ccccc1	0.63	10.8	–	–	0.83	–	> 100	0.63
O=C(O)c1nccn1CCc1cccc(Cl)c1	0.09	> 100	–	–	108	–	> 100	0.96
O=C(O)c1ncoc1Cc1ccccc1	41.7	> 100	–	–	11.8	–	> 100	> 100
O=C(O)c1nncn1Cc1ccccc1	> 100	–	–	–	–	–	> 100	–
O=C(O)c1nccn1CCc1ccccn1	0.2	> 100	–	–	0.71	–	18.9	3.83
O=C(O)c1nccn1CCNS(=O)(=O)c1ccccc1	5.95	> 100	–	–	62.7	–	> 100	> 100
O=C(O)c1ncsc1CCc1ccc(C(c2ccccc2)(c2ccccc2)c2ccccc2)cc1	0.23	46.8	–	–	0.65	–	> 100	9.56
Nc1ccc(CCn2ccnc2C(=O)O)cc1	0.33	4.9	–	–	0.45	–	> 100	3.73
O=C(O)c1ncsc1CCc1ccccc1	0.22	2.92	–	–	0.43	–	82.4	0.42
Cc1c(C(=O)O)ncn1Cc1ccccc1	> 100	> 100	–	–	> 100	–	> 100	> 100
O=C(O)c1ncn(Cc2ccccc2)n1	> 100	–	–	–	–	–	> 100	–
O=C(O)c1nccn1CCc1ccc2c(c1)CCO2	0.48	> 100	–	–	96.2	–	> 100	190
CC(Cn1ccnc1C(=O)O)c1ccccc1 (centres undefined)	0.19	261	–	–	1.08	–	203	3.29
O=C(O)c1nccn1CCc1ccc(Br)cc1	0.06	> 100	–	–	0.1	–	> 100	3.5
O=C(O)c1nccn1CCOc1ccccc1	5.49	> 100	–	–	0.52	–	> 100	14.4
O=C(O)c1nccn1CCS(=O)(=O)c1ccccc1	2.87	> 100	–	–	4.42	–	> 100	112
O=C(O)c1nccn1CCc1ccccc1	0.11	483	–	–	1.59	–	301	2.32
O=C(O)c1nccn1C(C(=O)O)c1ccccc1 (centres undefined)	7.48	1.59	16	8	9.24	16	> 300	> 300
CC(c1ccccc1)n1ccnc1C(=O)O (centres undefined)	0.76	4.12	–	–	3.81	–	> 200	8.18
O=C(O)c1nccn1CCc1ccc(-c2ccccc2)cc1	0.06	21.4	0.5	8	0.18	≤ 0.25	25.4	2.37
O=C(Cn1ccnc1C(=O)O)c1ccccc1	0.63	> 100	–	–	1.85	–	> 300	5.02
O=C(O)c1ncnn1Cc1ccccc1	> 100	–	–	–	–	–	> 100	–
O=C(O)c1nccn1CCc1ccc(F)cc1	0.14	> 100	–	–	1.93	–	> 100	3.11
